Source: ChEMBL document CHEMBL4800725 (2021)
Calls of active or inactive are those of the source. The calls are words filed in the database; no cut-off is given here.

Assays:
Pantetheinase [1] = molecular target: T1, Pantetheinase (Homo sapiens, UniProt O95497); assay: Human recombinant vanin-1 assay
T1 sequence (O95497 whole entry): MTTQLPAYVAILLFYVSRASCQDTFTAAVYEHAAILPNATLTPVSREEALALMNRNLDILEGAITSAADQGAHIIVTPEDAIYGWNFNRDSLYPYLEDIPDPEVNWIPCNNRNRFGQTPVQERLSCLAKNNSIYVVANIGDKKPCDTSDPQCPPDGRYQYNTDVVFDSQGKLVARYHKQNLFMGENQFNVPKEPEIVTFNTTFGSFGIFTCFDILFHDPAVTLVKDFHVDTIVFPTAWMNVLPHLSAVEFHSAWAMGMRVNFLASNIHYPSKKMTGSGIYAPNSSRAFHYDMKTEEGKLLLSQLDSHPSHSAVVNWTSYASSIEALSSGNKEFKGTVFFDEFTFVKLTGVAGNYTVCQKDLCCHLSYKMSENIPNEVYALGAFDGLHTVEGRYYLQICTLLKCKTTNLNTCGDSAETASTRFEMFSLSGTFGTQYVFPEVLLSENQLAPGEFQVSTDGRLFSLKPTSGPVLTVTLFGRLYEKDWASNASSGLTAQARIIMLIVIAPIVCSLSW

Pantetheinase [2] = molecular target: T2, Pantetheinase (Mus musculus, UniProt Q9Z0K8); assay: Mouse recombinant vanin-1 assay
T2 sequence (Q9Z0K8 whole entry): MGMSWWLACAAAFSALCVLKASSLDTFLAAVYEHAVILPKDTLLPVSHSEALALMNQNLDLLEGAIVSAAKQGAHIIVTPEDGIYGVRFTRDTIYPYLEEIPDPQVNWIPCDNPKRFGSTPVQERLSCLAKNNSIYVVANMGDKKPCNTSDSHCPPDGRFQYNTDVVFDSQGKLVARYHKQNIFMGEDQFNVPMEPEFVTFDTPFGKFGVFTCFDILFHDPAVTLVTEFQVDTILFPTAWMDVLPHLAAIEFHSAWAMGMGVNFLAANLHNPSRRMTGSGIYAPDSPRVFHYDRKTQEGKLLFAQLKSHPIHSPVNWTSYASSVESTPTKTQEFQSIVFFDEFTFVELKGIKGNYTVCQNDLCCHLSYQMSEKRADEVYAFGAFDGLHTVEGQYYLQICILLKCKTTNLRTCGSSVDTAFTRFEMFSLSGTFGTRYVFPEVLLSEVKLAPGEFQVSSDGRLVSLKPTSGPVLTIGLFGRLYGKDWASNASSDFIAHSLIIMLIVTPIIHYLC

Pantetheinase [3] = molecular target: T1, Pantetheinase; assay: Human plasma vanin-1 assay
Pantetheinase [4] = molecular target: T2, Pantetheinase; assay: Mouse plasma vanin-1 assay
Vanin 1 = molecular target: T3, Vanin 1 (Rattus norvegicus, UniProt Q4KLZ0)
T3 sequence (Q4KLZ0 whole entry): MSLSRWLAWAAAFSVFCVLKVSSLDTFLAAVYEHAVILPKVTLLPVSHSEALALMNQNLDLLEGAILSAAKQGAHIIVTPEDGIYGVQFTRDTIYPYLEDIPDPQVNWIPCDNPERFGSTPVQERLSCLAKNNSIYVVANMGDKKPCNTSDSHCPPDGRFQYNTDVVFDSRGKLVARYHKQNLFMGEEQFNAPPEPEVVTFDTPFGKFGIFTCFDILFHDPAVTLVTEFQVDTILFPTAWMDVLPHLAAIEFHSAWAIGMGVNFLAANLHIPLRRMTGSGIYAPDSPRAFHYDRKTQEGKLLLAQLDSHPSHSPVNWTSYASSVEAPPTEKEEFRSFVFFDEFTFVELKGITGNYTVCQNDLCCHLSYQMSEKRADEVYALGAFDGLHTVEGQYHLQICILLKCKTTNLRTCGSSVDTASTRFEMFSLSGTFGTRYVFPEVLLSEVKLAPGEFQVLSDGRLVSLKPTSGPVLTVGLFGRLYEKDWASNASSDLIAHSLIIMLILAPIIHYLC

IC50 (Pantetheinase [1]) | IC50 (Pantetheinase [3]) | SMILES | IC50 (Pantetheinase [2]) | IC50 (Pantetheinase [4]) | IC50 (Vanin 1)
17.6 µM (not active) | 3 µM (not active) | Cc1nc(NCc2cnccn2)ncc1C(=O)N1CCC2(CCOCC2)C1 [PFI-653-N] | 15 µM (not active) | 15 µM (not active) | 
 |  | O=C(c1cnc(NCc2cnccn2)nc1)N1CCC2(CCOCC2)C1 [PFI-653] | 0.0245 µM (active) | 0.0534 µM (active) | 0.012 µM (active)
